According to US11279733B2, “Peptide antibiotics” (priority 2017, dated 2022):
Converted amounts (≈) assume the structure as drawn. Read-outs that look alike come from different tables or passages of the source. Positions of bridges follow the written chain, without caps; N, C: chain ends. Non-standard residues stand in square brackets, D forms with d. Residues, ends and D or L forms follow the SMILES beside them. *: point of attachment. Decanoyl(3R-OH) = CCCCCCC[C@@H](O)CC(=O)*; dPhe(4-NH2) = Nc1ccc(C[C@@H](N)C(=O)O)cc1; d3Pal = N[C@H](Cc1cccnc1)C(=O)O; dDab = NCC[C@@H](N)C(=O)O; Dab = NCC[C@H](N)C(=O)O; Dap = NC[C@H](N)C(=O)O

Key:
[1] = system: A. baumannii ATCC 19606; conditions: ATCC 19606
Method in brief: (§1)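 Mid-log cultures grown in Mueller Hinton broth at 37° C were tested by 2-fold broth microdilution at 5×10^5 CFU/mL final. Compounds were dissolved in water and tested over a final range of 32 to 0.015 μg/mL.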

[2] = system: A. baumannii GN_093 PmxR; conditions: GN 093 PmxR
Method in brief: as §1

[3] = system: E. coli ATCC 25922; conditions: ATCC 25922
Method in brief: as §1

[4] = system: K. pneumoniae ATCC 13883; conditions: ATCC 13883
Method in brief: as §1

[5] = system: K. pneumoniae ATCC 700603, MDR; conditions: ATCC 700603
Method in brief: as §1

[6] = system: K. pneumoniae ATCC BAA-2146, NDM-1 pos; conditions: ATCC BAA-2146
Method in brief: as §1

[7] = system: K. pneumoniae GN_102 PmxR; conditions: GN 102 PmxR
Method in brief: as §1

[8] = system: K. pneumoniae GN_106, PmxR; conditions: GN 106, PmxR
Method in brief: as §1

[9] = system: P. aeruginosa ATCC 27853; conditions: ATCC 27853
Method in brief: as §1

[10] = system: P. aeruginosa GN_043, PmxR
Method in brief: as §1

[11] = system: P. aeruginosa GN_105, PmxR; conditions: GN 105, PmxR
Method in brief: as §1

[12] = system: S. aureus ATCC 25923, MSSA; conditions: ATCC 25923
Method in brief: as §1

[13] = in vitro; conditions: human
Method in brief: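 Cells were seeded at 4000 per well and allowed to attach for 24 h at 37 °C, 5% CO2, then exposed to compounds for 24 h. Resazurin (5 μM) was added for 2 h at 37 °C and fluorescence read at 560/590 nm. CC50 was derived by curve fitting of dose-dependent growth inhibition.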

| Structure (SMILES) | MIC A. baumannii GN_093 PmxR [2] [µg/mL] | MIC K. pneumoniae GN_102 PmxR [7] [µg/mL] | MIC K. pneumoniae GN_106, PmxR [8] [µg/mL] | MIC P. aeruginosa GN_105, PmxR [11] [µg/mL] | CC50 at 24 h [13] [µM] | MIC A. baumannii ATCC 19606 [1] [µg/mL] | MIC E. coli ATCC 25922 [3] [µg/mL] | MIC K. pneumoniae ATCC 13883 [4] [µg/mL] | MIC K. pneumoniae ATCC 700603, MDR [5] [µg/mL] | MIC K. pneumoniae ATCC BAA-2146, NDM-1 pos [6] [µg/mL] | MIC P. aeruginosa ATCC 27853 [9] [µg/mL] | MIC P. aeruginosa GN_043, PmxR ([10]; P. aeruginosa GN_043, PmxR) [µg/mL] | MIC S. aureus ATCC 25923, MSSA [12] [µg/mL] | also measured |
| --- | --- | --- | --- | --- | --- | --- | --- | --- | --- | --- | --- | --- | --- | --- |
| CCCCCCC[C@@H](O)CC(=O)N[C@H](CCCCN)C(=O)N[C@H]1CCNC(=O)[C@H](CC(C)C)NC(=O)[C@H](CCN)NC(=O)[C@H](CCN)NC(=O)[C@H](CC(C)C)NC(=O)[C@@H](Cc2ccccc2)NC(=O)[C@H](CCN)NC1=O [compound 5381, 3(R)OH-nC9CO-D-Lys-cyc[L-Dab-L-Dab-D-Phe-L-Leu-L-Dab-L-Dab-L-Leu]] ({Decanoyl(3R-OH)}-[dK][Dab][Dab][dF]L[Dab][Dab]L; lactam 2-C) | 8 (≈ 7.46 µM) | 4 (≈ 3.73 µM) | 4 (≈ 3.73 µM) | 4 (≈ 3.73 µM) | > 300 |  |  |  |  |  |  |  |  | MIC, A. baumannii ATCC 19606 [1]: 16 µg/mL (≈ 14.9 µM); MIC, E. coli ATCC 25922 [3]: 8 µg/mL (≈ 7.46 µM); MIC, K. pneumoniae ATCC 13883 [4]: 8 µg/mL (≈ 7.46 µM); MIC, K. pneumoniae ATCC 700603, MDR [5]: 4 µg/mL (≈ 3.73 µM); MIC, K. pneumoniae ATCC BAA-2146, NDM-1 pos [6]: 8 µg/mL (≈ 7.46 µM); MIC, P. aeruginosa ATCC 27853 [9]: 4 µg/mL (≈ 3.73 µM); MIC P. aeruginosa GN_043, PmxR ([10]; Table 6, polymyxin-resistant): 2 µg/mL (≈ 1.86 µM); MIC, S. aureus ATCC 25923, MSSA [12]: >32 µg/mL |
| CCCCCCC[C@@H](O)CC(=O)N[C@H](CCN)C(=O)N[C@H]1CCCCNC(=O)[C@H](CC(C)C)NC(=O)[C@H](CCN)NC(=O)[C@H](CCN)NC(=O)[C@H](CC(C)C)NC(=O)[C@@H](Cc2ccccc2)NC(=O)[C@H](CCN)NC1=O [compound 5382, 3(R)OH-nC9CO-D-Dab-cyc[L-Lys-L-Dab-D-Phe-L-Leu-L-Dab-L-Dab-L-Leu]] ({Decanoyl(3R-OH)}-[dDab]K[Dab][dF]L[Dab][Dab]L; lactam 2-C) | >32 | >32 | >32 | 2 (≈ 1.86 µM) | > 300 | 32 (≈ 29.8 µM) | 4 (≈ 3.73 µM) | 8 (≈ 7.46 µM) | 8 (≈ 7.46 µM) | 8 (≈ 7.46 µM) | 4 (≈ 3.73 µM) | 2 (≈ 1.86 µM) | 32 (≈ 29.8 µM) |  |
| CCCCCCC[C@@H](O)CC(=O)N[C@@H](CN)C(=O)N[C@H]1CCNC(=O)[C@H](CC(C)C)NC(=O)[C@H](CCN)NC(=O)[C@H](CCN)NC(=O)[C@H](CC(C)C)NC(=O)[C@@H](Cc2ccccc2)NC(=O)[C@H](CCN)NC1=O [compound 5561, 3(R)OH-nC9CO-L-Dap-cyc[L-Dab-L-Dab-D-Phe-L-Leu-L-Dab-L-Dab-L-Leu]] ({Decanoyl(3R-OH)}-[Dap][Dab][Dab][dF]L[Dab][Dab]L; lactam 2-C) | 8 (≈ 7.76 µM) | 4 (≈ 3.88 µM) | 4 (≈ 3.88 µM) | 2 (≈ 1.94 µM) | > 300 |  |  |  |  |  |  |  |  | MIC, A. baumannii ATCC 19606 [1]: 16 µg/mL (≈ 15.5 µM); MIC, E. coli ATCC 25922 [3]: 4 µg/mL (≈ 3.88 µM); MIC, K. pneumoniae ATCC 13883 [4]: 4 µg/mL (≈ 3.88 µM); MIC, K. pneumoniae ATCC 700603, MDR [5]: 8 µg/mL (≈ 7.76 µM); MIC, K. pneumoniae ATCC BAA-2146, NDM-1 pos [6]: 8 µg/mL (≈ 7.76 µM); MIC, P. aeruginosa ATCC 27853 [9]: 2 µg/mL (≈ 1.94 µM); MIC P. aeruginosa GN_043, PmxR ([10]; Table 6, polymyxin-resistant): 2 µg/mL (≈ 1.94 µM); MIC, S. aureus ATCC 25923, MSSA [12]: 16 µg/mL (≈ 15.5 µM) |
| CCCCCCC[C@@H](O)CC(=O)N[C@@H](CCN)C(=O)N[C@H]1CCNC(=O)[C@H](CC(C)C)NC(=O)[C@H](CN)NC(=O)[C@H](CCN)NC(=O)[C@H](CC(C)C)NC(=O)[C@@H](Cc2ccccc2)NC(=O)[C@H](CCN)NC1=O [compound 5564, 3(R)OH-nC9CO-L-Dab-cyc[L-Dab-L-Dab-D-Phe-L-Leu-L-Dab-L-Dap-L-Leu]] ({Decanoyl(3R-OH)}-[Dab][Dab][Dab][dF]L[Dab][Dap]L; lactam 2-C) | 32 (≈ 31.1 µM) | 4 (≈ 3.88 µM) | 8 (≈ 7.76 µM) | 32 (≈ 31.1 µM) | > 300 | >32 | 8 (≈ 7.76 µM) | 8 (≈ 7.76 µM) | 16 (≈ 15.5 µM) | 8 (≈ 7.76 µM) | 2 (≈ 1.94 µM) |  | 32 (≈ 31.1 µM) | MIC P. aeruginosa GN_043, PmxR ([10]; polymyxin-resistant): 2 µg/mL (≈ 1.94 µM) |
| CCCCCCC[C@@H](O)CC(=O)N[C@H](Cc1ccc(N)cc1)C(=O)N[C@H]1CCNC(=O)[C@H](CC(C)C)NC(=O)[C@H](CCN)NC(=O)[C@H](CCN)NC(=O)[C@H](Cc2ccccc2)NC(=O)[C@@H](CC(C)C)NC(=O)[C@H](CCN)NC1=O [compound 6429, 3(R)OH-nC9CO-D-4NH2Phe-cyc[L-Dab-L-Dab-D-Leu-L-Phe-L-Dab-L-Dab-L-Leu]] ({Decanoyl(3R-OH)}-[dPhe(4-NH2)][Dab][Dab][dL]F[Dab][Dab]L; lactam 2-C) | >32 | 8 (≈ 7.23 µM) | 8 (≈ 7.23 µM) | 32 (≈ 28.9 µM) | > 300 | 32 (≈ 28.9 µM) | 16 (≈ 14.5 µM) | 16 (≈ 14.5 µM) | 8 (≈ 7.23 µM) | 16 (≈ 14.5 µM) | 32 (≈ 28.9 µM) | 16 (≈ 14.5 µM) | >32 |  |
| CCCCCCC[C@@H](O)CC(=O)N[C@H](Cc1cccnc1)C(=O)N[C@H]1CCNC(=O)[C@H](CC(C)C)NC(=O)[C@H](CCN)NC(=O)[C@H](CCN)NC(=O)[C@H](Cc2ccccc2)NC(=O)[C@@H](CC(C)C)NC(=O)[C@H](CCN)NC1=O [compound 6430, 3(R)OH-nC9CO-D-3PyPhe-cyc[L-Dab-L-Dab-D-Leu-L-Phe-L-Dab-L-Dab-L-Leu]] ({Decanoyl(3R-OH)}-[d3Pal][Dab][Dab][dL]F[Dab][Dab]L; lactam 2-C) | >32 | 8 (≈ 7.32 µM) | 4 (≈ 3.66 µM) | 32 (≈ 29.3 µM) | > 300 | 32 (≈ 29.3 µM) | 16 (≈ 14.6 µM) | 16 (≈ 14.6 µM) | 8 (≈ 7.32 µM) | 16 (≈ 14.6 µM) | 32 (≈ 29.3 µM) | 16 (≈ 14.6 µM) | >32 |  |
| CCCCCCC[C@@H](O)CC(=O)NCC(=O)N[C@H]1CCNC(=O)[C@H](CC(C)C)NC(=O)[C@H](CCN)NC(=O)[C@H](CCN)NC(=O)[C@H](Cc2ccccc2)NC(=O)[C@@H](CC(C)C)NC(=O)[C@H](CCN)NC1=O [compound 6431, 3(R)OH-nC9CO-Gly-cyc[L-Dab-L-Dab-D-Leu-L-Phe-L-Dab-L-Dab-L-Leu]] ({Decanoyl(3R-OH)}-G[Dab][Dab][dL]F[Dab][Dab]L; lactam 2-C) | 32 (≈ 32 µM) | 2 (≈ 2 µM) | 4 (≈ 3.99 µM) | 4 (≈ 3.99 µM) | > 300 | 32 (≈ 32 µM) | 16 (≈ 16 µM) | 8 (≈ 7.99 µM) | 8 (≈ 7.99 µM) | 8 (≈ 7.99 µM) | 8 (≈ 7.99 µM) | 8 (≈ 7.99 µM) | >32 |  |
